Test results: patent publication US8946266B2, “Substituted triazole and imidazole derivatives as gamma secretase modulators” (Janssen Pharmaceuticals, Inc., priority 2009, dated 2015)

Experiments:
Aβtotal [1] = assay: In vivo efficacy, Method 2: brain soluble Aβtotal lowering 4 h after a single oral dose, ELISA (Table 4b); parameters: species or system mouse; conditions: dose 30 mg/kg oral dosing
Source text: (§1) To determine whether acute administration of an Aβ42 lowering agent would reduce Aβ42 levels in vivo, non-transgenic rodents, e.g. mice or rats were used. Animals treated with the Aβ42 lowering agent were examined and compared to those untreated or treated with vehicle and brain levels of soluble Aβ42 and total Aβ were quantitated by standard techniques, for example, using ELISA. Treatment periods varied from hours (h) to days and were adjusted based on the results of the Aβ42 lowering once a time course of onset of effect could be established.
(§2) A typical protocol for measuring Aβ42 lowering in vivo is shown but it is only one of many variations that could be used to optimize the levels of detectable Aβ. For example, Aβ42 lowering compounds were formulated in 20% of Captisol® (a sulfobutyl ether of β-cyclodextrin) in water or 20% hydroxypropyl β cyclodextrin. The Aβ42 lowering agents were administered as a single oral dose or by any acceptable route of administration to overnight fasted animals. After 4 h, the animals were sacrificed and Aβ42 levels were analysed.
(§3) Blood was collected by decapitation and exsanguinations in EDTA-treated collection tubes. Blood was centrifuged at 1900 g for 10 minutes (min) at 4° C. and the plasma recovered and flash frozen for later analysis. The brain was removed from the cranium and hindbrain. The cerebellum was removed and the left and right hemisphere were separated. The left hemisphere was stored at −18° C. for quantitative analysis of test compound levels. The right hemisphere was rinsed with phosphate-buffered saline (PBS) buffer and immediately frozen on dry ice and stored at −80° C. until homogenization for biochemical assays.
(§4) Mouse brains from non-transgenic animals were resuspended in 8 volumes of 0.4% DEA (diethylamine)/50 mM NaCl containing protease inhibitors (Roche-11873580001 or 04693159001) per gram of tissue, e.g. for 0.158 g brain, add 1.264 ml of 0.4% DEA. All samples were homogenized in the FastPrep-24 system (MP Biomedicals) using lysing matrix D (MPBio #6913-100) at 6 m/s for 20 seconds. Homogenates were centrifuged at 221.300×g for 50 min. The resulting high speed supernatants were then transferred to fresh eppendorf tubes. Nine parts of supernatant were neutralized with 1 part 0.5 M Tris-HCl pH 6.8 and used to quantify Aβtotal and Aβ42.
(§5) To quantify the amount of Aβtotal and Aβ42 in the soluble fraction of the brain homogenates, Enzyme-Linked-Immunosorbent-Assays were used. Briefly, the standards (a dilution of synthetic Aβ1-40 and Aβ1-42, Bachem) were prepared in 1.5 ml Eppendorf tube in Ultraculture, with final concentrations ranging from 10000 to 0.3 pg/ml. The samples and standards were co-incubated with HRPO-labelled N-terminal antibody for Aβ42 detection and with the biotinylated mid-domain antibody 4G8 for Aβtotal detection. 50 μl of conjugate/sample or conjugate/standards mixtures were then added to the antibody-coated plate (the capture antibodies selectively recognize the C-terminal end of Aβ42, antibody JRF/cAβ42/26, for Aβ42 detection and the N-terminus of Aβ, antibody JRF/rAβ/2, for Aβtotal detection). The plate was allowed to incubate overnight at 4° C. in order to allow formation of the antibody-amyloid complex. Following this incubation and subsequent wash steps the ELISA for Aβ42 quantification was finished by addition of Quanta Blu fluorogenic peroxidase substrate according to the manufacturer's instructions (Pierce Corp., Rockford, Ill.). A reading was performed after 10 to 15 min (excitation 320/emission 420).
For Aβtotal detection, a Streptavidine-Peroxidase-Conjugate was added, followed 60 min later by an additional wash step and addition of Quanta Blu fluorogenic peroxidase substrate according to the manufacturer's instructions (Pierce Corp., Rockford, Ill.). A reading was performed after 10 to 15 min (excitation 320 nm/emission 420 nm).
(§6) The results are shown in Table 4b (dose 30 mg/kg oral dosing): […]

Aβtotal [2] = assay: γ-secretase-modulating activity, Method 2: Aβtotal Alphalisa in supernatant of SKNBE2 cells carrying APP 695-wild type (Table 3b); format: cell-based; conditions: overnight, read-out: IC50 Aβtot
Summary of the method: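 SKNBE2 cells expressing wild-type APP 695 were incubated overnight at 37 °C, 5% CO2 with test compound at a range of concentrations. Aβtotal in supernatant was measured by AlphaLISA sandwich (N-terminal JRF/AβN/25 acceptor, biotinylated mid-region 4G8 donor); IC50 from 4-parameter fit of percent control versus log concentration.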

Aβ42 [3] = assay: In vivo efficacy, Method 2: brain soluble Aβ42 lowering 4 h after a single oral dose, ELISA (Table 4b); parameters: species or system mouse; conditions: dose 30 mg/kg oral dosing
Source text: as §1, §2, §3, §4, §5
In this model at least 20% Aβ42 lowering compared to untreated animals would be advantageous.
as §6

Aβ42 [4] = assay: γ-secretase-modulating activity, Method 2: Aβ42 Alphalisa in supernatant of SKNBE2 cells carrying APP 695-wild type (Table 3b); format: cell-based; conditions: overnight
Summary of the method: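 SKNBE2 cells expressing wild-type APP695 were incubated overnight at 37° C. with test compound. Secreted Aβ42 was then measured by AlphaLISA, using a C-terminal Aβ42 antibody paired with an N-terminal Aβ antibody. IC50 came from a 4-parameter fit of percent of compound-free control.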

Structure (SMILES) | IC50 (Aβtotal [2]) [nM] | IC50 (Aβ42 [4]) [nM] | Aβtotal (% Ctrl) _Mean (Aβtotal [1]) [% Ctrl] | Aβ42 (% Ctrl) _Mean (Aβ42 [3]) [% Ctrl]
COc1cc(-c2nc3n(n2)CCC[C@H]3c2ccc(F)cc2C)ccc1-n1cnc(C)c1.Cl [Compound 315] | > 10000 | 29 | 10 | 49
COc1nc(-c2nc(Nc3cccc(C(F)(F)F)c3)n(C)n2)ccc1-n1cnc(C)c1 [Compound 153] | > 10000 | 8 | −6 | 14
COc1nc(-c2nc3n(n2)CCC[C@H]3c2ccc(F)cc2C)ccc1-n1cnc(C)c1 [Compound 361] | – | 42 | −8 | 32
COc1cc(-c2nc(Nc3cc(C(F)(F)F)cc(C(F)(F)F)c3)n(C)n2)ccc1-n1cnc(C)c1 [Compound 150] | > 10000 | 13 | −8 | −6
COc1c(-n2cnc(C)c2)ccc(-c2nc(Nc3cc(C(F)(F)F)ccc3F)n(C)n2)c1F [Compound 320] | > 10000 | 45 | 8 | 23
COc1cc(C(F)(F)F)cc(Nc2nc(-c3ccc(-n4cnc(C)c4)c(OC)n3)nn2C)c1F [Compound 353] | > 10000 | 17 | 2 | 63
COc1cc(-c2nc3n(n2)CCOC3c2cc(OC(F)(F)F)ccc2F)ccc1-n1cnc(C)c1 (centres unmarked) [Compound 128] | > 10000 | 28 | 24 | 47
COc1nc(-c2nc(Nc3cccc(F)c3C(F)(F)F)n(C)n2)ccc1-n1cnc(C)c1 [Compound 138] | > 10000 | 50 | 17 | 46
COc1nc(-c2nc(N(C)c3cc(C(F)(F)F)ccc3F)n(C)n2)ccc1-n1cnc(C)c1 [Compound 337] | > 10000 | 263 | 3 | 30
COc1nc(-c2nc(Nc3cccc(C(F)(F)F)c3F)n(C)n2)ccc1-n1cnc(C)c1 [Compound 167] | > 15000 | 38 | −1 | 52
COc1cc(-c2nc(Nc3cc(C(C)(C)C)nn3C)n(C)n2)ccc1-n1cnc(C)c1 [Compound 244] | > 10000 | 83 | 5 | 7
COc1nc(-c2nc(Nc3ccccc3C(F)(F)F)n(C)n2)ccc1-n1cnc(C)c1 [Compound 132] | > 10000 | 135 | −1 | 39
COc1nc(-c2nc(Nc3cc(OC(F)(F)F)ccc3F)n(C)n2)ccc1-n1cnc(C)c1 [Compound 184] | > 15000 | 13 | 15 | 69

Second part, led by results:

IC50 (Aβtotal [2]) [nM] | IC50 (Aβ42 [4]) [nM] | Structure (SMILES) | Aβtotal (% Ctrl) _Mean (Aβtotal [1]) [% Ctrl] | Aβ42 (% Ctrl) _Mean (Aβ42 [3]) [% Ctrl]
> 10000 | 78 | COc1cc(-c2nc(Nc3cccc(C)c3F)n(C)n2)ccc1-n1cnc(C)c1 [Compound 161] | 8 | 45
> 10000 | 110 | COCc1ccccc1Nc1nc(-c2ccc(-n3cnc(C)c3)c(OC)c2)nn1C.Cl [Compound 204] | 2 | 41
> 10000 | 44 | COc1cc(-c2nc(Nc3ccccc3OC(F)F)n(C)n2)ccc1-n1cnc(C)c1 [Compound 310] | 20 | 45
> 10000 | 8 | COc1cc(-c2nc(Nc3cc(OC(C)C)ccc3F)n(C)n2)ccc1-n1cnc(C)c1 [Compound 307] | −2 | 19
> 10000 | 20 | COc1cc(-c2nc(Nc3cc(C(F)(F)F)cc(F)c3F)n(C)n2)ccc1-n1cnc(C)c1 [Compound 140] | 8 | 33
> 10000 | 85 | COc1cc(-c2nc(Nc3c(F)cccc3Cl)n(C)n2)ccc1-n1cnc(C)c1 [Compound 125] | 11 | 2
> 10000 | 9 | COc1cc(-c2nc(Nc3cc(C(F)(F)F)ccc3C(F)(F)F)n(C)n2)ccc1-n1cnc(C)c1 [Compound 144] | 9 | 38
> 10000 | 25 | COc1cc(-c2nc(Nc3c(F)ccc(C(F)(F)F)c3F)n(C)n2)ccc1-n1cnc(C)c1 [Compound 211] | −1 | 32
8510 | 35 | COc1cc(-c2nc(Nc3ccccc3OC(F)(F)F)n(C)n2)ccc1-n1cnc(C)c1.Cl.Cl [Compound 182] | 14 | 55
> 10000 | 170 | COc1cc(-c2nc(Nc3c(F)cccc3OC)n(C)n2)ccc1-n1cnc(C)c1 [Compound 214] | 0 | −15
> 10000 | 19 | COc1cc(-c2nc(Nc3ccccc3C(C)C)n(C)n2)ccc1-n1cnc(C)c1 [Compound 99] | −2 | 58
> 10000 | 41 | COc1cc(-c2nc(Nc3cccc(Cl)c3C(F)(F)F)n(C)n2)ccc1-n1cnc(C)c1 [Compound 169] | 9 | 57
> 10000 | 132 | COc1cc(-c2nc(Nc3ccccc3F)n(C)n2)ccc1-n1cnc(C)c1 [Compound 105] | −7 | 24
8910 | 5 | COc1cc(Nc2nc(-c3ccc(-n4cnc(C)c4)c(OC)c3)nn2C)cc(C(F)(F)F)c1 [Compound 213] | 7 | 9
> 10000 | 42 | COc1cc(-c2nc(Nc3cccc(F)c3C)n(C)n2)ccc1-n1cnc(C)c1 [Compound 304] | 11 | 48
> 10000 | 19 | COc1cc(-c2nc(Nc3ccc(F)c(C(F)(F)F)c3)n(C)n2)ccc1-n1cnc(C)c1 [Compound 152] | −9 | 10
> 10000 | 10 | COc1cc(-c2nc(Nc3cc(C(F)(F)F)ccc3Cl)n(C)n2)ccc1-n1cnc(C)c1 [Compound 177] | 11 | 51
